# Patent US20200306222A1, “Dosing Regimen of Siponimod” (NOVARTIS AG, priority 2017, published 2020)
# Key:
# [1] = siponimod single dose study (SAD study) in healthy volunteers; assay type: in vivo; settings: healthy subjects
# [2] = clinical study of siponimod pharmacokinetics in CYP2C9 poor metabolizers; assay type: in vivo, human
# Text: In addition to the previously described benefits, the dosing regimen of the present disclosure has also the advantage to highly reduce the additional risks run by the CYP2C9 poor metabolizer.
# [3] = phase II dose finding study in relapsing-remitting multiple sclerosis (CBAF312A2201); assay type: in vivo, human; settings: RRMS patients
# Method: In a phase II dose finding study of siponimod in patients with relapsing-remitting multiple sclerosis (CBAF312A2201) safety, tolerability and efficacy on magnetic resonance imaging (MRI) brain lesion parameters were evaluated. The dose response curve for the MRI-based efficacy of siponimod given orally once daily compared with placebo was determined.
# The dose-response curve as defined by the primary endpoint, favored the upper part of this range, i.e. a dose in the range of siponimod 2 mg, since efficacy seemed to decrease with lower doses. Siponimod achieved positive results in a clinical trial for the treatment of RRMS patients (Selmaj et al., Lancet Neurol, 2013, 12, 756-767) and is currently being investigated in an ongoing phase III study (EXPAND) in patients with SPMS. The dose of 2 mg of siponimod was the chosen dose for this follow up phase III study.
# [4] = multiple ascending dosing study (MAD study) in healthy subjects, adverse events; assay type: in vivo, human; settings: maximum investigated multiple dose of 20 mg, over 28 days
# Method: (§1) In another study in healthy subjects siponimod was administered in multiple doses, i.e. 0.3, 1, 2.5, 10 and 20 mg, over 28 days (multiple ascending dosing study, MAD study).
# [5] = multiple-dose titration clinical study in healthy subjects, daily chronotropic effects; assay type: in vivo, human
# Method: S1P receptor modulators, as mentioned above, are known to cause dose dependent transient decrease in heart rate within 2-3 hours of drug intake (Legangneux et al. 2012, Hoch et al. 2014). In order to evaluate on how to best mitigate the bradyarrhythmic risk of siponimod, a multiple-dose titration clinical study in healthy subjects was run.
# The primary objective of this study was to measure the daily chronotropic effects of two siponimod dose-titration regimens (from 0.25 mg to 10 mg; Dose Titration (DT) 1# and 2#, respectively) compared to daily chronotropic effects of oral siponimod 10 mg (fixed dose, once daily) and placebo over 12 days. The heart rate (HR) changes have been compared between subjects exposed to 10 mg siponimod once daily (QD) with or without 2 different up-titration schemes. The titration scheme of this study was: • DT 1#: Day 1: 0.25 mg; Day 2: 0.25 mg; Day 3: 0.25 mg; Day 4: 0.5 mg; Day 5: 1.0 mg; Day 6: 2.0 mg; Day 7: 4.0 mg; Day 8: 8.0 mg and from Day 9 to Day 12: 10.0 mg daily. • DT 2#: Day 1: 0.25 mg; Day 2: 0.25 mg; Day 3: 0.5 mg; Day 4: 0.75 mg; Day 5: 1.25 mg; Day 6: 2.0 mg; Day 7: 3.0 mg; Day 8: 5.0 mg; from Day 9 to Day 12: 10.0 mg daily.
# This effect was maintained until end of treatment on Day 12. […] It was then concluded that both titration regimens effectively attenuated the initial bradycardia observed on Day 1 of treatment with siponimod 10 mg daily fixed-dose.
# [6] = randomized placebo-controlled study of siponimod in intracerebral hemorrhage (ICH) patients; assay type: in vivo, human; settings: compared to placebo
# Text: The clinical study investigates the initial efficacy and safety of siponimod administered on top of standard-of-care compared to placebo in patients with intracerebral hemorrhage (ICH). This is a randomized, doubled-blinded, placebo-controlled, parallel group study of siponimod on top of standard-of-care for ICH, consisting of 3 epochs: Screening/Baseline, Treatment, and Follow-Up (see FIG. 1).
# Patients fulfilling all eligibility criteria are randomly allocated to one of two treatment groups in a ratio of 1:1. […] These patients continue to be followed for the remainder of the assessment schedule (Table 3). i.v. Dose Titration
# The siponimod i.v. dosing regimen is as follows: • Day 1: 0.25 mg over 6 hours (×2), then 0.5 mg over 6 hours, then 0.75 mg over 6 hours for a total Day 1 dose of 1.75 mg • Day 2: 1.25 mg over 6 hours, then 2 mg over 6 hours, then 2.5 mg over 6 hours (×2) for a total Day 2 dose of 8.25 mg • Days 3 through Day 7: 2.5 mg over 6 hours (×4) for a total daily dose of 10 mg. • If patient can swallow then the administration from Day 8 to Day 14 is oral.
# This is a randomized, doubled-blinded, placebo-controlled, parallel group study of siponimod on top of standard-of-care for ICH, consisting of 3 epochs: Screening/Baseline, Treatment, and Follow-Up (see FIG. 1).
# Patients are assigned to one of the following 2 treatment arms in a ratio of 1:1. • Study treatments are defined as: • Siponimod • Day 1: i.v. 0.25 mg over 6 hours (×2), then 0.5 mg over 6 hours, then 0.75 mg over 6 hours for a total Day 1 dose of 1.75 mg • Day 2: i.v. 1.25 mg over 6 hours, then 2 mg over 6 hours, then 2.5 mg over 6 hours (×2) for a total Day 2 dose of 8.25 mg • Days 3 through 7: i.v. 2.5 mg over 6 hours (×4) for a total daily dose of 10 mg • Days 8 through 14; 10 mg p.o. QD
# [7] = test system: Absolute Lymphocyte Count (ALC); test: multiple ascending dosing study in healthy volunteers, decline of Absolute Lymphocyte Count; assay type: in vivo, human
# Method: as §1
# [8] = test system: peripheral lymphocyte counts; test: general pharmacokinetics/pharmacodynamics of siponimod (lymphocyte counts, half-life, brain penetration); assay type: in vivo
# Method: (§2) Siponimod is a second generation S1P receptor modulator that reduces peripheral lymphocyte counts approximately 4-6 hours (h) after the first dose. […] Siponimod's mode of action is believed to include S1P1-mediated prevention of effector lymphocyte recirculation from lymphatic tissue to sites of inflammation, such as the central nervous system (CNS). In addition, there may be direct beneficial effects in the CNS mediated by S1P1 and/or S1P5. […] Thus, siponimod may display additional beneficial activities in the CNS.
# [9] = as above; assay type: in vivo; settings: in vivo
# Method: as §2
# [10] = i.v. (bolus) cardiovascular safety studies; assay type: in vivo, guinea pig, rat and rabbit; settings: similar to the effects by oral route
# Text: (§3) The safety of the i.v. route in humans was supported by a local tolerance study in rabbit and cardiovascular safety studies in guinea pig, rat and rabbit using i.v. (bolus) route.
# [11] = test system: CYP2C9, CYP3A4; settings: humans; cited from earlier work
# [12] = i.v. versus oral absolute bioavailability study in healthy subjects (CBAF312A2126), PK and PD; assay type: in vivo, human
# Method: A comparison of bradyarrhythmic effects (HR, AVB, SP) of a 1 mg oral dose from previous studies and a 1 mg/day i.v. dose infused over 24 h in healthy subjects supported the hypothesis that such effects are related to the slope of the concentration-time curve.
# In said study with siponimod administered intravenously, PK and PD were determined. […] This finding was consistent with previous oral administrations of 0.25 mg (starting dose of the oral initial period dosing regimen).
# as §3
smiles,measurement,setting,value
"CCc1cc(/C(C)=N/OCc2ccc(C3CCCCC3)c(C(F)(F)F)c2)ccc1CN1CC(C(=O)O)C1 [siponimod, 1-{4-[(1E)-N-{[4-cyclohexyl-3-(trifluoromethyl)benzyl]oxy}ethanimidoyl]-2-ethylbenzyl}-3-azetidine carboxylic acid]",safety and tolerability,[1]; 25 mg single dose,favorable safety and tolerability profile
same,single maximum tolerated dose (single MTD),[1]; single dose,25 mg
same,Tmax in poor versus extensive metabolizers,[2]; poor and extensive metabolizers,comparable
same,Cmax in poor versus extensive metabolizers,[2]; poor metabolizers,only slightly greater
same,AUC fold versus extensive metabolizers (CYP2C9*1*1),[2]; poor metabolizers (CYP2C9*2*3 and CYP2C9*3*3 genotypes),approximately 2 fold
same,MRI-based efficacy,[3]; 1.25 mg to 2 mg dose range,close to maximal efficacy
same,safety profile,[3]; 1.25 mg to 2 mg dose range,good safety profile
same,MRI-based efficacy,[3]; 10 mg orally once daily,little additional efficacy compared to 2 mg
same,safety profile,[3]; 10 mg orally once daily,worse safety profile
same,only relevant adverse event,[4],symptomatic bradycardia
same,reduction in heart rate vs. placebo,"[5]; Day 1, either titration regimen",no statistically significant reduction in heart rate vs. placebo
same,reduction in HR,"[5]; Days 3 to 7, DT 1# and DT 2#",minor reductions in HR
same,heart rates versus placebo,"[5]; by Day 9 until Day 12, both titration regimens",comparable to placebo
same,clinically significant bradycardia or AV conduction effects,"[5]; dose titration regimens DT 1# and DT 2# (0.25 mg to 10 mg), oral, 12 days",Neither DT 1# nor DT 2# resulted in clinically significant bradycardia or AV conduction effects
same,heart rates versus placebo,"[5]; non-titration regimen, 10 mg fixed dose once daily, throughout the study",considerable separation from placebo
same,bradyarrhythmia,[5]; starting dose of 0.25 mg of the 2 DT regimens,not associated with bradyarrhythmia
same,"global functioning, modified Rankin Scale (mRS) score","[6]; Day 90 after ICH, 7 days i.v. with titration followed by 7 days p.o.",improves global functioning
same,development of perihematomal edema (PHE),[6]; between 24 hours and 14 days after initiation of treatment,decreases the development of perihematomal edema (PHE)
same,functional mobility,[6]; two week treatment,improves functional mobility of the affected body parts
same,% Emax0-12 h from Day 1 pre-dose,[7]; 0.3 mg dose group,41.9%
same,% Emax0-12 h from time-matched Day −1,[7]; 0.3 mg dose group,47.8%
same,% Emax0-12 h from Day 1 pre-dose,[7]; 1 mg dose group,71.3%
same,% Emax0-12 h from time-matched Day −1,[7]; 1 mg dose group,73.8%
same,"ALC decrease, chronic response",[7]; 2.5 mg,~70%
same,% Emax0-12 h from Day 1 pre-dose,[7]; 2.5 mg dose group,66.9%
same,% Emax0-12 h from time-matched Day −1,[7]; 2.5 mg dose group,67.5%
same,"ALC decrease, chronic response (plateau)",[7]; 10 mg,about 80%
same,% Emax0-12 h from Day 1 pre-dose,[7]; 10 mg dose group,83.7%
same,% Emax0-12 h from time-matched Day −1,[7]; 10 mg dose group,86.1%
same,% Emax0-12 h from Day 1 pre-dose,[7]; 20 mg dose group,84.8%
same,% Emax0-12 h from time-matched Day −1,[7]; 20 mg dose group,86.5%
same,acute ALC response,"[7]; Day 1 of treatment, between 0.3 mg and 10 mg dose",dose-dependent decline of ALC
same,time to reduction of peripheral lymphocyte counts,[8]; after the first dose,4 to 6 h (h)
same,recovery of the baseline lymphocyte counts,[8]; after treatment withdrawal,within a week
same,blood brain barrier crossing,[8]; in vivo,readily crosses the blood brain barrier
same,half-life,[9],~30 h
same,cardiovascular effects,[10],Cmax-related transient cardiovascular effects
same,metabolizing enzymes,[11],"mainly by CYP2C9, followed by CYP3A4"
same,pharmacokinetics (PK) linearity,"[12]; human, in vivo",dose linear and time-independent pharmacokinetics
same,Tmax,"[12]; human, in vivo, 0.25 mg, oral, after dosing, read-out: median oral Tmax",8 h
same,"magnitude of PD (ALC) effects %Emax, i.v. versus oral",[12]; i.v. 0.25 mg over 3 hour and 1 mg over 24 hours,comparable to the effects after oral doses at the same dose levels
same,median i.v. Tmax,[12]; i.v. infusion 0.25 mg over 3 hours and 1 mg over 24 hours,at the end of the 3 hour and 24 hour infusions
same,cardiac safety profile,[12]; i.v. infusion 0.25 mg over 3 hours and 1 mg over 24 hours (4×0.25 mg/6 hours),excellent cardiac safety profile
same,geometric mean oral Cmax relative to mean i.v. Cmax (lower),[12]; oral versus i.v.,-48%
